Read-outs that look alike come from different tables or passages of the source.
Test system: weeds
Assay: Activity test of the compositions, soil sealing treatment
Type: in vivo
Conditions: for pest or weed control at 120 g/ha: B 8 g a.i./mu
Protocol: The desired active ingredient B was purchased from a reagent company or synthesized by a known method. The technical materials were all dissolved in acetone and diluted with an aqueous solution containing 0.10% emulsifier Tween-80 which were to be used immediately after dilution.
Weeds are cultivated in a controllable sunlight greenhouse at 20 to 30° C., in natural light, and with relative humidity of 57% to 72%. […] The test soil was filled quantitatively to ¾ of the pots and then watered from the bottom of the pots to completely wet the soil to saturation. The test weed seeds were accelerated to just germinate, and then evenly and quantitatively sowed on the surface, then covered with 0.5-1 cm soil according to the seed size, and ready for use 72 hours after sowing.
Each treatment was repeated 4 times. Four pots with 20 weed seeds per pot were treated each time.
The well-sowed test materials were evenly placed on a platform with an area of 0.5 m^2, and solution of agents was sprayed on the soil by the 3WP-2000-type walking spray tower at a dosage of 450 kg/ha and at a spray pressure of 0.3 MPa. After all the solution was sprayed, the valve was closed. After 30 seconds, the door of the spray tower was opened, and the nutritional bowl was taken out. Then the valve was opened, and the spray tube was cleaned by spraying 50 ml of water.
A method for investigating absolute numbers was employed. Whole seedlings of survival weeds were cut off with a blade along the soil surface, and the fresh weight of the weeds was weighed with an analytical balance. For dead weeds, the fresh weight thereof was zero.
The investigation was performed 21 days after the treatment for only once in total.

[1] = Echinochloa crus-galli, Echinochloa crusgalli, soil (S), B 6 g a.i./mu, read-out: Control effect (%) of B applied alone (B)
[2] = Echinochloa crus-galli, Echinochloa crusgalli, soil (S), B 12 g a.i./mu, read-out: Control effect (%) of B applied alone (B)
[3] = Lolium multiflorum, soil (S), B 16 g a.i./mu, read-out: Control effect (%) of B applied alone (B)
[4] = Echinochloa crusgalli, soil (S), B 1 g a.i./mu
[5] = Echinochloa crusgalli, soil (S), B 2 g a.i./mu
[6] = Echinochloa crusgalli, soil (S), B 0.6 g a.i./mu
[7] = Echinochloa crusgalli, soil (S), B 1.2 g a.i./mu
[8] = Echinochloa crusgalli, soil (S), B 0.5 g a.i./mu
[9] = Lolium multiflorum, soil (S), B 32 g a.i./mu, read-out: Control effect (%) of B applied alone (B)
[10] = Lolium multiflorum, soil, read-out: Control effect (%) of B applied alone (B)

With `CC(C)CCCCCOC(=O)COc1ccc(Cl)cc1Cl` [2,4-D isooctyl ester] the “Control effect (%) of B applied alone (B)” value (shortened to “Control effect (%)”) (Veronica didyma, soil (S), B 6 g a.i./mu) was 33.6% and the “Control effect (%)” value (Veronica didyma, soil (S), B 12 g a.i./mu) was 42.5%.

With `COCC(C)N(C(=O)CCl)c1c(C)csc1C` (stereo not shown) [dimethenamid] the pest or weed control at 90 g/ha [1] was 31.5% and the pest or weed control at 180 g/ha [2] was 43.7%.

`Cc1ccc(NC(=O)N(C)C)cc1Cl` [chlorotoluron] showed a pest or weed control at 225 g/ha (Alopecurus japonicus, soil (S), B 15 g a.i./mu, read-out: Control effect (%) of B applied alone (B)) of 34.2% and a pest or weed control at 450 g/ha (Alopecurus japonicus, soil (S), B 30 g a.i./mu, read-out: Control effect (%) of B applied alone (B)) of 58.3%.

In the case of `CCSC(=O)N1CCCCCC1` [molinate], the pest or weed control at 300 g/ha (Echinochloa crus-galli, Echinochloa crusgalli, soil (S), B 20 g a.i./mu, read-out: Control effect (%) of B applied alone (B)) is reported as 39.6% and the pest or weed control at 600 g/ha (Echinochloa crus-galli, Echinochloa crusgalli, soil (S), B 40 g a.i./mu, read-out: Control effect (%) of B applied alone (B)) is reported as 51.7%.

For `CCCOCCN(C(=O)CCl)c1c(CC)cccc1CC` [pretilachlor], the pest or weed control at 120 g/ha (Lolium multiflorum, soil (S), read-out: Control effect (%) of B applied alone (B)) was 23.4% and the pest or weed control at 240 g/ha [3] was 50.9%.

With `O=C1C(Cl)C(CCl)CN1c1cccc(C(F)(F)F)c1` (stereo not shown) [flurochloridone] the pest or weed control at 60 g/ha (Veronica polita, Veronica didyma, soil (S), B 4 g a.i./mu, read-out: Control effect (%) of B applied alone (B)) was 45.1% and the pest or weed control at 120 g/ha (Veronica polita, Veronica didyma, soil (S), read-out: Control effect (%) of B applied alone (B)) was 60.8%.

With `C#CCN(C)c1c(C#N)cnn1-c1nn2c(c1Cl)CCCC2` [pyraclonil] the “Control effect (%)” value [4] was 22.5% and the “Control effect (%)” value [5] was 43.6%.

With `O=C(Nc1ccc(F)cc1)c1cccc(Oc2cccc(C(F)(F)F)c2)n1` [picolinafen] the “Control effect (%)” value (Galium aparine, soil (S), B 0.5 g a.i./mu) was 40.8% and the “Control effect (%)” value (Galium aparine, soil (S), B 1 g a.i./mu) was 55.7%.

`COc1cc(OC)nc(NC(=O)NS(=O)(=O)c2c(C3=NOCC(C)O3)c(Cl)nn2C)n1` (stereo not shown) [metazosulfuron] was tested, and the “Control effect (%)” value (Echinochloa crusgalli, soil (S), B 0.75 g a.i./mu) was 32.4% and the “Control effect (%)” value (Echinochloa crusgalli, soil (S), B 1.5 g a.i./mu) was 41.6%.

With `CS(=O)(=O)c1ccc(C(=O)C2C(=O)CCCC2=O)c(Cl)c1COCC1CCCO1` (stereo not shown) [tefuryltrione] the “Control effect (%)” value [6] was 28.4% and the “Control effect (%)” value [7] was 49.7%.

For `COc1nc(OC)nc(C(=O)c2cccc(F)c2N(C)S(=O)(=O)C(F)F)n1` [triafamone], the “Control effect (%)” value (Echinochloa crusgalli, soil (S), B 0.25 g a.i./mu) was 27.6% and the “Control effect (%)” value [8] was 38.4%.

Compound `CC(C)N(C(=O)COc1nnc(C(F)(F)F)s1)c1ccc(F)cc1` [flufenacet] has a pest or weed control at 90 g/ha [1] of 29.8% and a pest or weed control at 180 g/ha [2] of 37.5%.

With `COC(=O)c1ccccc1CS(=O)(=O)NC(=O)Nc1nc(OC)cc(OC)n1` [bensulfuron-methyl] the pest or weed control at 7.5 g/ha (Cyperus difformis, soil (S), B 0.5 g a.i./mu, read-out: Control effect (%) of B applied alone (B)) was 42.6% and the pest or weed control at 15 g/ha (Cyperus difformis, soil (S), B 1 g a.i./mu, read-out: Control effect (%) of B applied alone (B)) was 55.8%.

`Cc1nn(-c2cc(NS(C)(=O)=O)c(Cl)cc2Cl)c(=O)n1C(F)F` [sulfentrazone] gave a pest or weed control at 60 g/ha (Echinochloa crus-galli, Echinochloa crusgalli, soil (S), B 4 g a.i./mu, read-out: Control effect (%) of B applied alone (B)) of 34.2% and a pest or weed control at 120 g/ha (Echinochloa crus-galli, Echinochloa crusgalli, soil (S), read-out: Control effect (%) of B applied alone (B)) of 53.6%.

In the case of `CCCc1ccc2nc(Cl)c(S(=O)(=O)NC(=O)Nc3nc(OC)cc(OC)n3)n2n1` [propyrisulfuron], the “Control effect (%)” value [6] is reported as 22.6% and the “Control effect (%)” value [7] is reported as 37.5%.

For `C#CCOc1cc(-n2nc(C(C)(C)C)oc2=O)c(Cl)cc1Cl` [oxadiargy1], the “Control effect (%)” value [8] was 36.2% and the “Control effect (%)” value [4] was 47.9%.

For `CCC(Oc1ccc(F)c(C(F)(F)F)c1)C(=O)NCc1ccccc1` (stereo not shown) [beflubutamid], the “Control effect (%)” value (Veronica didyma, soil (S), B 1 g a.i./mu) was 42.6% and the “Control effect (%)” value (Veronica didyma, soil (S), B 2 g a.i./mu) was 57.9%.

In the case of `CC(C)N(C(=O)n1cnn(-c2ccc(Cl)cc2Cl)c1=O)c1ccc(F)cc1F` [ipfencarbazone], the “Control effect (%)” value [5] is reported as 41.5% and the “Control effect (%)” value (Echinochloa crusgalli, soil (S), B 4 g a.i./mu) is reported as 57.6%.

For `CCNc1nc(Cl)nc(NC(C)(C)C)n1` [terbutylazine], the “Control effect (%)” value (Echinochloa crusgalli, soil (S), B 6 g a.i./mu) was 33.8% and the “Control effect (%)” value (Echinochloa crusgalli, soil (S), B 12 g a.i./mu) was 52.7%.

With `CCC(CC)Nc1c([N+](=O)[O-])cc(C)c(C)c1[N+](=O)[O-]` [pendimethalin] the pest or weed control at 240 g/ha [3] was 23.6% and the pest or weed control at 480 g/ha [9] was 42.7%.

With `CC1=C(c2ccccc2)C(=O)N(C(C)(C)c2cc(Cl)cc(Cl)c2)CO1` [oxaziclomefone] the pest or weed control at 7.5 g/ha (Echinochloa crus-galli, 504 h, Echinochloa crusgalli, soil treatment (S), B at 0.5 g a.i./mu, 21 days, read-out: Control effect (%) of B applied alone (B)) was 33.7% and the pest or weed control at 15 g/ha (Echinochloa crus-galli, 504 h, Echinochloa crusgalli, soil treatment (S), B at 1 g a.i./mu, 21 days, read-out: Control effect (%) of B applied alone (B)) was 51.2%.

`CCCCOCN(C(=O)CCl)c1c(CC)cccc1CC` [butachlor] was tested, and the pest or weed control at 240 g/ha [3] was 28.8% and the pest or weed control at 480 g/ha [9] was 46.4%.

In the case of `CCC(C)Nc1c([N+](=O)[O-])cc(C(C)(C)C)cc1[N+](=O)[O-]` (stereo not shown) [butralin], the pest or weed control at 240 g/ha [10] is reported as 19.5% and the pest or weed control at 480 g/ha [10] is reported as 35.8%.

Reference: patent US20240327359A1, “3-ISOXAZOLIDINONE COMPOUND, PREPARATION METHOD, HERBICIDAL COMPOSITION AND APPLICATION THEREOF” (QINGDAO KINGAGROOT CHEMICAL COMPOUND CO., LTD., priority 2021, published 2024)
